This passage reports IC50 and Ki results from patent publication US9993554B2 (CENTRO NACIONAL DE INVESTIGACIONES ONCOLOGICAS (CNIO), priority 2010, dated 2018).

As a reminder, the IC50 is the concentration needed to halve the response being measured. Usually Ki stands for a dissociation constant, usually derived from enzyme kinetics or from competition with a known ligand. Low values mean higher affinity, high ones lower affinity.

One assay concerns the target T1, PI3K (p110α/p85α) (Homo sapiens, UniProt P42336).
T1 construct: purchased Carna Biosciences 07CBS-0402A
As to the kind of experiment: PI3K activity assay (ADP Hunter Plus). It counts as biochemical. To be noted: read-out: IC50, PI3K inhibition. On the procedure: The kinase activity was measured by using the commercial ADP Hunter™ Plus assay available from DiscoveRx (#33-016), which is a homogeneous assay to measure the accumulation of ADP, a universal product of kinase activity. […] Reaction was carried out for 1 hour at 25° C. Reagent A and B were sequentially added to the wells and plates were incubated for 30 min at 37° C. […] Values were normalized against the control activity included for each enzyme (i.e., 100% PI3 kinase activity, without compound). These values were plot against the inhibitor concentration and were fit to a sigmoid dose-response curve by using the Graphad software.

In the next assay the target is PI3K isoform p110γ (Homo sapiens, UniProt P48736). The assay can be described thus: Inhibition of PI3K isoform p110γ. It counts as biochemical.
Sequence of PI3K isoform p110γ (P48736 whole entry, canonical isoform): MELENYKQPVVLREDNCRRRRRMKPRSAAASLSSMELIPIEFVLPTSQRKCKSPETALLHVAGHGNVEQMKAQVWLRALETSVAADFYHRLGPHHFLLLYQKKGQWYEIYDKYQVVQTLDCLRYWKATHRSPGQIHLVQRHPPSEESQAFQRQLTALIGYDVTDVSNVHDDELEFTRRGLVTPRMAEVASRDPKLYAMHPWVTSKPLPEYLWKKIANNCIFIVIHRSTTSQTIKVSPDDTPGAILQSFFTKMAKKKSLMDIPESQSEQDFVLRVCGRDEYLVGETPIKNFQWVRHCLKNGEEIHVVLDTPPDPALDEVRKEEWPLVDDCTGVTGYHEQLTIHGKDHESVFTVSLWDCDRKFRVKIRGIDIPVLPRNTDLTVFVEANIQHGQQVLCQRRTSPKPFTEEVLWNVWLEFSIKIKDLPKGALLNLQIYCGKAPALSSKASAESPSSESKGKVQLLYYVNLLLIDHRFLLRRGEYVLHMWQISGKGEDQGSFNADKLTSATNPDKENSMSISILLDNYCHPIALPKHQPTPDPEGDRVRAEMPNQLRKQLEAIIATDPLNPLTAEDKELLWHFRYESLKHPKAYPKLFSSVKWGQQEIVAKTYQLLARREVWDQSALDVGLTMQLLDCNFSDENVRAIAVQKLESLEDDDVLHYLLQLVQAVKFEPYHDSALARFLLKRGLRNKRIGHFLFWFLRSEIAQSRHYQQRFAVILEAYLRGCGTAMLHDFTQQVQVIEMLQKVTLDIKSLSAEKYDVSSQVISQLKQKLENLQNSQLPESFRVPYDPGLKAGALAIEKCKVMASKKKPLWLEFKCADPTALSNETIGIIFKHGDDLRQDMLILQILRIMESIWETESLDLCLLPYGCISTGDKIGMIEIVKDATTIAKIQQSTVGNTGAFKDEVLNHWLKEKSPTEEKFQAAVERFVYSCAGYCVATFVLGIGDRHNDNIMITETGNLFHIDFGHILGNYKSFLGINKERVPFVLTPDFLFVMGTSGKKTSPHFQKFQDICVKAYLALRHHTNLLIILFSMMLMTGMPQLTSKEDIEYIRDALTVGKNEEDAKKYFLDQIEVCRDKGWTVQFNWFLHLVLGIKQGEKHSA

T1 sequence (P42336 whole entry): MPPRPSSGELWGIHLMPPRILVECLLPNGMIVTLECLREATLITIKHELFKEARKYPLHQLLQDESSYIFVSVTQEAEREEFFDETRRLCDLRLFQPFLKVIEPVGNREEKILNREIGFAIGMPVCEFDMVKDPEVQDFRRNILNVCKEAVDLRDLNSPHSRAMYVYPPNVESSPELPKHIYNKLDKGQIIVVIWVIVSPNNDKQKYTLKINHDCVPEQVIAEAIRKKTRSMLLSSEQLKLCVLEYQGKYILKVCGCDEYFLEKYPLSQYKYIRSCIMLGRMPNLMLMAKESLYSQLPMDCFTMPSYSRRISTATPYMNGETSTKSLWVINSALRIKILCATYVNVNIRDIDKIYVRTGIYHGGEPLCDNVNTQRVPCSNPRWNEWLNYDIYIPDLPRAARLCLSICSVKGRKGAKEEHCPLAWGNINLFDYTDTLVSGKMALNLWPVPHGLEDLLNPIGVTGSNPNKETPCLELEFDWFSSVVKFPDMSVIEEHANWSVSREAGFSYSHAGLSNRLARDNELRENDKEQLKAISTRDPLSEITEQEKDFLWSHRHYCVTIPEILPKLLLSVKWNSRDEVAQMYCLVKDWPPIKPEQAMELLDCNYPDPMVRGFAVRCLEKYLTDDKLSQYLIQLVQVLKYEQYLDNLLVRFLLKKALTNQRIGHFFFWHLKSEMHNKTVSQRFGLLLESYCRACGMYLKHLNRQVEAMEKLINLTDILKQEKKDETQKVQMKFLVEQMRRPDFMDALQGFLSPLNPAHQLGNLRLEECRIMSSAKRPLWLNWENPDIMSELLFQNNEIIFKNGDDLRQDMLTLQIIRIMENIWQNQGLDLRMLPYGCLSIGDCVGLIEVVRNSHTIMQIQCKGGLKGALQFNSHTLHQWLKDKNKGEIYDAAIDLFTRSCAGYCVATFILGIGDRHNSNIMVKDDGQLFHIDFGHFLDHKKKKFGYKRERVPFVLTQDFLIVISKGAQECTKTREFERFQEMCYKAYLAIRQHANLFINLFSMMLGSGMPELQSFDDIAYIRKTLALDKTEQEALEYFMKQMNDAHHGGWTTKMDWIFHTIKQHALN
T1 sequence (P27986 whole entry partner): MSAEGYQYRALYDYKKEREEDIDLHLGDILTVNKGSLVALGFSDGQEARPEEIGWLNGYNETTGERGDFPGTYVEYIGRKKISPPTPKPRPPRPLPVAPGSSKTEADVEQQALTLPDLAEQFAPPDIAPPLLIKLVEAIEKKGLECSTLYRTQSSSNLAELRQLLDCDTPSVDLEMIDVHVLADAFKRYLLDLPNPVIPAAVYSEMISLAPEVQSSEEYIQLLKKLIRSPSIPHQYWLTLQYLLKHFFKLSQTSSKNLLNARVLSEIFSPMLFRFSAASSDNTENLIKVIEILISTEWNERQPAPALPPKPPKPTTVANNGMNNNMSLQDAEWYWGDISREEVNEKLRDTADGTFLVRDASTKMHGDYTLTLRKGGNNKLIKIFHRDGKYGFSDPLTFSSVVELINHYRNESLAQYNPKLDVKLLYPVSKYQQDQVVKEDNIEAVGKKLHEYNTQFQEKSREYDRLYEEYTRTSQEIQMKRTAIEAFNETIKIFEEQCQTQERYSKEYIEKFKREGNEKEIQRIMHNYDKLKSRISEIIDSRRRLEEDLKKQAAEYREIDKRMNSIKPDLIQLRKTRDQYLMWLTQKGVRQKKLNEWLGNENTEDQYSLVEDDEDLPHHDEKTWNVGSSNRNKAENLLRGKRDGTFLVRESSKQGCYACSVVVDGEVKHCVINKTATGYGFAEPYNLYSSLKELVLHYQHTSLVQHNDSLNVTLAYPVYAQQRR

`CS(=O)(=O)N1CCN(Cc2cn3c(Cl)c(-c4cnc(N)nc4)nc(N4CCOCC4)c3n2)CC1` [Compound A]: at PI3K (p110α/p85α), the IC50 was 2.4 nM. Moreover, the inhibition constant (Ki) on PI3K isoform p110γ is over 100 nM.
